# Measured values reported in PubChem BioAssay AID248 (DTP/NCI, 2004).
# Several values for one entry are separate records, joined by “and”; a condition that tells them apart may be missing. Equal values may be shown once. Toxic doses and inconclusive results are not listed.
# Tested on: L1210 leukemia ip in BDF1 mice, survival T/C
# Assay: NCI In Vivo Anticancer Drug Screen. Data for tumor model L1210 Leukemia (intraperitoneal) in B6D2F1 (BDF1) mice
# Conditions: higher = longer survival
# In short: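 Survival endpoint. Drug-treated group vs vehicle group, expressed as T divided by C. Tumor passaged by transplantation.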
smiles,measurement,setting,value
C[n+]1ccc(Nc2ccc(NC(=O)c3ccc(Nc4cc[n+](C)c5ccc(N)cc45)cc3)cc2)cc1,T/C,"endpoint: mean survival time, dose: 0.5 mg/kg/injection, schedule: Q01DX009 (ip), vehicle: water",118 % of control
same,T/C,"endpoint: mean survival time, dose: 0.5 mg/kg/injection, schedule: Q01DX009 (sc), vehicle: water",151 % of control
same,T/C,"endpoint: mean survival time, dose: 1.0 mg/kg/injection, schedule: Q01DX009 (ip), vehicle: Klucel (hydroxypropylcellulose) (HPC)",112 % of control
same,T/C,"endpoint: mean survival time, dose: 1.0 mg/kg/injection, schedule: Q01DX009 (sc), vehicle: Klucel (hydroxypropylcellulose) (HPC)",159 % of control
same,T/C,"endpoint: mean survival time, dose: 1.0 mg/kg/injection, schedule: Q01DX009 (sc), vehicle: water",110 % of control and 113 % of control
same,T/C,"endpoint: mean survival time, dose: 2.0 mg/kg/injection, schedule: Q01DX009 (ip), vehicle: Klucel (hydroxypropylcellulose) (HPC)",107 % of control
same,T/C,"endpoint: mean survival time, dose: 2.0 mg/kg/injection, schedule: Q01DX009 (ip), vehicle: water",185 % of control and 204 % of control and 235 % of control
same,T/C,"endpoint: mean survival time, dose: 2.0 mg/kg/injection, schedule: Q01DX009 (sc), vehicle: water",175 % of control
same,T/C,"endpoint: mean survival time, dose: 4.0 mg/kg/injection, schedule: Q01DX009 (ip), vehicle: Klucel (hydroxypropylcellulose) (HPC)",118 % of control
same,T/C,"endpoint: mean survival time, dose: 4.0 mg/kg/injection, schedule: Q01DX009 (ip), vehicle: water",234 % of control and 267 % of control and 272 % of control
same,T/C,"endpoint: mean survival time, dose: 4.0 mg/kg/injection, schedule: Q01DX009 (sc), vehicle: Klucel (hydroxypropylcellulose) (HPC)",200 % of control
same,T/C,"endpoint: mean survival time, dose: 4.0 mg/kg/injection, schedule: Q01DX009 (sc), vehicle: water",205 % of control and 224 % of control
same,T/C,"endpoint: mean survival time, dose: 8.0 mg/kg/injection, schedule: Q01DX009 (ip), vehicle: Klucel (hydroxypropylcellulose) (HPC)",215 % of control
same,T/C,"endpoint: mean survival time, dose: 8.0 mg/kg/injection, schedule: Q01DX009 (ip), vehicle: water",175 % of control and 211 % of control and 252 % of control
same,T/C,"endpoint: mean survival time, dose: 8.0 mg/kg/injection, schedule: Q01DX009 (sc), vehicle: water",190 % of control and 222 % of control
same,T/C,"endpoint: mean survival time, dose: 10.0 mg/kg/injection, schedule: Q01DX009 (oral), vehicle: Klucel (hydroxypropylcellulose) (HPC)",104 % of control
same,T/C,"endpoint: mean survival time, dose: 12.5 mg/kg/injection, schedule: Q04DX003 (ip), vehicle: saline with Tween-80",247 % of control
same,T/C,"endpoint: mean survival time, dose: 12.5 mg/kg/injection, schedule: Q04DX003 (ip), vehicle: saline",257 % of control
same,T/C,"endpoint: mean survival time, dose: 16.0 mg/kg/injection, schedule: Q01DX009 (sc), vehicle: Klucel (hydroxypropylcellulose) (HPC)",176 % of control
same,T/C,"endpoint: mean survival time, dose: 16.0 mg/kg/injection, schedule: Q01DX009 (sc), vehicle: water",155 % of control and 171 % of control
same,T/C,"endpoint: mean survival time, dose: 20.0 mg/kg/injection, schedule: Q01DX009 (oral), vehicle: Klucel (hydroxypropylcellulose) (HPC)",105 % of control
same,T/C,"endpoint: mean survival time, dose: 25.0 mg/kg/injection, schedule: Q04DX003 (ip), vehicle: saline with Tween-80",269 % of control
same,T/C,"endpoint: mean survival time, dose: 40.0 mg/kg/injection, schedule: Q01DX009 (oral), vehicle: Klucel (hydroxypropylcellulose) (HPC)",100 % of control
same,T/C,"endpoint: mean survival time, dose: 50.0 mg/kg/injection, schedule: Q04DX003 (ip), vehicle: saline with Tween-80",248 % of control
same,T/C,"endpoint: mean survival time, dose: 50.0 mg/kg/injection, schedule: Q04DX003 (ip), vehicle: saline",253 % of control
same,T/C,"endpoint: mean survival time, dose: 75.0 mg/kg/injection, schedule: Q04DX003 (ip), vehicle: saline",227 % of control
same,T/C,"endpoint: mean survival time, dose: 80.0 mg/kg/injection, schedule: Q01DX009 (oral), vehicle: Klucel (hydroxypropylcellulose) (HPC)",105 % of control
same,T/C,"endpoint: mean survival time, dose: 160.0 mg/kg/injection, schedule: Q01DX009 (oral), vehicle: Klucel (hydroxypropylcellulose) (HPC)",101 % of control
same,T/C,"endpoint: median survival time, dose: 0.25 mg/kg/injection, schedule: Q03HX008 (ip), vehicle: water",103 % of control and 121 % of control
same,T/C,"endpoint: median survival time, dose: 0.25 mg/kg/injection, schedule: Q03HX016 (ip), vehicle: water",107 % of control and 116 % of control
same,T/C,"endpoint: median survival time, dose: 0.25 mg/kg/injection, schedule: Q03HX024 (ip), vehicle: water",112 % of control and 116 % of control
same,T/C,"endpoint: median survival time, dose: 0.5 mg/kg/injection, schedule: Q01DX005 (ip), vehicle: water",102 % of control and 124 % of control
same,T/C,"endpoint: median survival time, dose: 0.5 mg/kg/injection, schedule: Q01DX009 (ip), vehicle: water",112 % of control and 122 % of control
same,T/C,"endpoint: median survival time, dose: 0.5 mg/kg/injection, schedule: Q01DX009 (sc), vehicle: water",96 % of control and 100 % of control
same,T/C,"endpoint: median survival time, dose: 0.5 mg/kg/injection, schedule: Q03HX008 (ip), vehicle: water",112 % of control
same,T/C,"endpoint: median survival time, dose: 0.5 mg/kg/injection, schedule: Q03HX016 (ip), vehicle: water",119 % of control
same,T/C,"endpoint: median survival time, dose: 0.5 mg/kg/injection, schedule: Q03HX024 (ip), vehicle: water",150 % of control
same,T/C,"endpoint: median survival time, dose: 1.0 mg/kg/injection, schedule: Q01DX005 (ip), vehicle: water",117 % of control
same,T/C,"endpoint: median survival time, dose: 1.0 mg/kg/injection, schedule: Q01DX009 (sc), vehicle: water",101 % of control and 111 % of control
same,T/C,"endpoint: median survival time, dose: 1.0 mg/kg/injection, schedule: Q03HX016 (ip), vehicle: water",169 % of control
same,T/C,"endpoint: median survival time, dose: 1.0 mg/kg/injection, schedule: Q03HX024 (ip), vehicle: water",169 % of control and 186 % of control
same,T/C,"endpoint: median survival time, dose: 2.0 mg/kg/injection, schedule: Q01DX001 (sc), vehicle: water",97 % of control and 98 % of control
same,T/C,"endpoint: median survival time, dose: 2.0 mg/kg/injection, schedule: Q01DX005 (ip), vehicle: water",179 % of control
same,T/C,"endpoint: median survival time, dose: 2.0 mg/kg/injection, schedule: Q01DX009 (ip), vehicle: water",177 % of control and 224 % of control
same,T/C,"endpoint: median survival time, dose: 2.0 mg/kg/injection, schedule: Q01DX009 (sc), vehicle: water",150 % of control
same,T/C,"endpoint: median survival time, dose: 2.0 mg/kg/injection, schedule: Q03HX008 (ip), vehicle: water",169 % of control
same,T/C,"endpoint: median survival time, dose: 2.0 mg/kg/injection, schedule: Q03HX016 (ip), vehicle: water",158 % of control and 213 % of control
same,T/C,"endpoint: median survival time, dose: 2.0 mg/kg/injection, schedule: Q03HX024 (ip), vehicle: water",197 % of control
same,T/C,"endpoint: median survival time, dose: 2.0 mg/kg/injection, schedule: Q04DX003 (ip), vehicle: water",114 % of control and 121 % of control
same,T/C,"endpoint: median survival time, dose: 2.0 mg/kg/injection, schedule: Q08DX002 (ip), vehicle: water",110 % of control and 113 % of control
same,T/C,"endpoint: median survival time, dose: 4.0 mg/kg/injection, schedule: Q01DX001 (ip), vehicle: water",110 % of control
same,T/C,"endpoint: median survival time, dose: 4.0 mg/kg/injection, schedule: Q01DX001 (sc), vehicle: water",95 % of control and 105 % of control
same,T/C,"endpoint: median survival time, dose: 4.0 mg/kg/injection, schedule: Q01DX005 (ip), vehicle: water",195 % of control
same,T/C,"endpoint: median survival time, dose: 4.0 mg/kg/injection, schedule: Q01DX009 (ip), vehicle: water",231 % of control
same,T/C,"endpoint: median survival time, dose: 4.0 mg/kg/injection, schedule: Q01DX009 (sc), vehicle: water",183 % of control and 222 % of control
same,T/C,"endpoint: median survival time, dose: 4.0 mg/kg/injection, schedule: Q03HX008 (ip), vehicle: water",202 % of control
same,T/C,"endpoint: median survival time, dose: 4.0 mg/kg/injection, schedule: Q03HX016 (ip), vehicle: water",229 % of control and 261 % of control
same,T/C,"endpoint: median survival time, dose: 4.0 mg/kg/injection, schedule: Q03HX024 (ip), vehicle: water",201 % of control and 247 % of control
same,T/C,"endpoint: median survival time, dose: 4.0 mg/kg/injection, schedule: Q04DX003 (ip), vehicle: water",124 % of control
same,T/C,"endpoint: median survival time, dose: 4.0 mg/kg/injection, schedule: Q08DX002 (ip), vehicle: water",116 % of control and 124 % of control
same,T/C,"endpoint: median survival time, dose: 8.0 mg/kg/injection, schedule: Q01DX001 (ip), vehicle: water",121 % of control
same,T/C,"endpoint: median survival time, dose: 8.0 mg/kg/injection, schedule: Q01DX001 (sc), vehicle: water",105 % of control and 113 % of control
same,T/C,"endpoint: median survival time, dose: 8.0 mg/kg/injection, schedule: Q01DX005 (ip), vehicle: water",211 % of control
same,T/C,"endpoint: median survival time, dose: 8.0 mg/kg/injection, schedule: Q01DX009 (sc), vehicle: water",178 % of control
same,T/C,"endpoint: median survival time, dose: 8.0 mg/kg/injection, schedule: Q04DX003 (ip), vehicle: water",164 % of control
same,T/C,"endpoint: median survival time, dose: 8.0 mg/kg/injection, schedule: Q08DX002 (ip), vehicle: water",153 % of control
same,T/C,"endpoint: median survival time, dose: 16.0 mg/kg/injection, schedule: Q01DX001 (sc), vehicle: water",105 % of control
same,T/C,"endpoint: median survival time, dose: 16.0 mg/kg/injection, schedule: Q01DX009 (sc), vehicle: water",95 % of control
same,T/C,"endpoint: median survival time, dose: 32.0 mg/kg/injection, schedule: Q01DX001 (sc), vehicle: water",165 % of control
same,T/C,"endpoint: median survival time, dose: 64.0 mg/kg/injection, schedule: Q01DX001 (sc), vehicle: water",192 % of control and 267 % of control
N.N.N.N.N.N#CN=C(N)N.[Co+3].[O-][Cl+3]([O-])([O-])[O-],T/C,"endpoint: mean survival time, dose: 100.0 mg/kg/injection, schedule: Q04DX002 (ip), vehicle: saline",171 % of control
C[N+](C)(C)CCP(=O)([O-])O,T/C,"endpoint: mean survival time, dose: 100.0 mg/kg/injection, schedule: Q01DX009 (ip), vehicle: saline",101 % of control
same,T/C,"endpoint: mean survival time, dose: 200.0 mg/kg/injection, schedule: Q01DX009 (ip), vehicle: saline",93 % of control
same,T/C,"endpoint: mean survival time, dose: 400.0 mg/kg/injection, schedule: Q01DX009 (ip), vehicle: saline",95 % of control
